The record followed here is article PMC6576746, “Rational discovery of dual-indication multi-target PDE/Kinase inhibitor for precision anti-cancer therapy using structural systems pharmacology” (PLoS Computational Biology, 2019).

Assay in all cases: biochemical
Common to all, as to parameters: DiscoverX KinomeScan competition binding assay across human kinases; per cent of control at 10 and 100 uM

The target of experiment [1] is EGFR (Homo sapiens, UniProt P00533). The note with it: competition binding, % of control. Summed up: (§1)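 KinomeScan competition binding was run across a human kinase panel at 10 μM and 100 μM levosimendan. Results are %control = (test − positive control)/(negative control − positive control) × 100.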
Experiment [2] addresses CLK1 (Homo sapiens, UniProt P49759). The note with it: competition binding, % of control; read-out: Percent Control (100 uM Levosimendan). Summed up: as §1
The target in experiment [3] is PIK3CA(H1047Y) (Homo sapiens, UniProt P42336, H1047Y). The note with it: competition binding, % of control; read-out: Percent Control (100 uM Levosimendan). The gist of the method:
as §1

In experiment [4] the target is T1, RIOK3 (Homo sapiens, UniProt O14730).
T1 sequence (O14730 1-519): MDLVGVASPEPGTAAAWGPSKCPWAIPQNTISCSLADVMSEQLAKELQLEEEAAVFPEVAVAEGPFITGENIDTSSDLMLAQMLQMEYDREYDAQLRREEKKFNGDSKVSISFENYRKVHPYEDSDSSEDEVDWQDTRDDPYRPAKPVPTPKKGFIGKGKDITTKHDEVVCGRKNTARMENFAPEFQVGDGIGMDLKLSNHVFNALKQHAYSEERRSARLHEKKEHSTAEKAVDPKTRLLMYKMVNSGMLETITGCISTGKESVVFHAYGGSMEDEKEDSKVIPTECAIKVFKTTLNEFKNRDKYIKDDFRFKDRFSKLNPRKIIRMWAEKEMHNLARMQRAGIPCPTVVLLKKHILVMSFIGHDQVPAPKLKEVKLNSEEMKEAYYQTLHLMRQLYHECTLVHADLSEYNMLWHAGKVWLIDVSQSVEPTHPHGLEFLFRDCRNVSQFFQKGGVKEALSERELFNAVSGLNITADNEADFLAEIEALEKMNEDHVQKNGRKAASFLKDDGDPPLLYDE
The note with it: competition binding, % of control. Summed up: as §1

In experiment [5] the target is T2, HPK1 (Homo sapiens, UniProt Q92918).
T2 construct: gene MAP4K1
The note with it: competition binding, % of control; read-out: Percent Control (100 uM Levosimendan). The gist of the method: as §1

The target of experiment [6] is MARK2 (Homo sapiens, UniProt Q7KZI7). The note with it: competition binding, % of control; read-out: Percent Control (100 uM Levosimendan). Summed up:
as §1

Experiment [7] addresses INSR (Homo sapiens, UniProt P06213). The note with it: competition binding, % of control; read-out: Percent Control (100 uM Levosimendan). The gist of the method:
as §1

For experiment [8], the target named is RIPK1 (Homo sapiens, UniProt Q13546). The note with it: competition binding, % of control; read-out: Percent Control (100 uM Levosimendan). Summed up:
as §1

Experiment [9] deals with ACVR1 (Homo sapiens, UniProt Q04771). The note with it: competition binding, % of control. Summed up:
as §1

In experiment [10] the target is T3, QSK (Homo sapiens, UniProt Q9Y2K2).
T3 construct: gene SIK3
The note with it: competition binding, % of control; read-out: Percent Control (100 uM Levosimendan). The gist of the method:
as §1

The target of experiment [11] is PKN1 (Homo sapiens, UniProt Q16512). The note with it: competition binding, % of control; read-out: Percent Control (100 uM Levosimendan). The gist of the method: as §1
Experiment [12] deals with T4, OSR1 (Homo sapiens, UniProt O95747).
T4 construct: gene OXSR1
The note with it: competition binding, % of control; read-out: Percent Control (100 uM Levosimendan). The gist of the method:
as §1

For experiment [13], the target named is T5, MEK1 (Homo sapiens, UniProt Q02750).
T5 construct: gene MAP2K1
The note with it: competition binding, % of control; read-out: Percent Control (100 uM Levosimendan). Summed up:
as §1

Experiment [14] addresses T6, ADCK3 (Homo sapiens, UniProt Q8NI60).
T6 construct: gene COQ8A
The note with it: competition binding, % of control; read-out: Percent Control (100 uM Levosimendan). Summed up: as §1

Experiment [15] has as its target T7, ABL1(Q252H)-nonphosphorylated (Homo sapiens, UniProt P00519, Q252H).
T7 construct: nonphosphorylated
The note with it: competition binding, % of control; read-out: Percent Control (100 uM Levosimendan). Summed up: as §1

[16] abbreviates: read-out: Percent Control (10 uM Levosimendan).
The mark [17] stands for this setting: read-out: Percent Control (100 uM Levosimendan).

EGFR, sequence (P00533 whole entry): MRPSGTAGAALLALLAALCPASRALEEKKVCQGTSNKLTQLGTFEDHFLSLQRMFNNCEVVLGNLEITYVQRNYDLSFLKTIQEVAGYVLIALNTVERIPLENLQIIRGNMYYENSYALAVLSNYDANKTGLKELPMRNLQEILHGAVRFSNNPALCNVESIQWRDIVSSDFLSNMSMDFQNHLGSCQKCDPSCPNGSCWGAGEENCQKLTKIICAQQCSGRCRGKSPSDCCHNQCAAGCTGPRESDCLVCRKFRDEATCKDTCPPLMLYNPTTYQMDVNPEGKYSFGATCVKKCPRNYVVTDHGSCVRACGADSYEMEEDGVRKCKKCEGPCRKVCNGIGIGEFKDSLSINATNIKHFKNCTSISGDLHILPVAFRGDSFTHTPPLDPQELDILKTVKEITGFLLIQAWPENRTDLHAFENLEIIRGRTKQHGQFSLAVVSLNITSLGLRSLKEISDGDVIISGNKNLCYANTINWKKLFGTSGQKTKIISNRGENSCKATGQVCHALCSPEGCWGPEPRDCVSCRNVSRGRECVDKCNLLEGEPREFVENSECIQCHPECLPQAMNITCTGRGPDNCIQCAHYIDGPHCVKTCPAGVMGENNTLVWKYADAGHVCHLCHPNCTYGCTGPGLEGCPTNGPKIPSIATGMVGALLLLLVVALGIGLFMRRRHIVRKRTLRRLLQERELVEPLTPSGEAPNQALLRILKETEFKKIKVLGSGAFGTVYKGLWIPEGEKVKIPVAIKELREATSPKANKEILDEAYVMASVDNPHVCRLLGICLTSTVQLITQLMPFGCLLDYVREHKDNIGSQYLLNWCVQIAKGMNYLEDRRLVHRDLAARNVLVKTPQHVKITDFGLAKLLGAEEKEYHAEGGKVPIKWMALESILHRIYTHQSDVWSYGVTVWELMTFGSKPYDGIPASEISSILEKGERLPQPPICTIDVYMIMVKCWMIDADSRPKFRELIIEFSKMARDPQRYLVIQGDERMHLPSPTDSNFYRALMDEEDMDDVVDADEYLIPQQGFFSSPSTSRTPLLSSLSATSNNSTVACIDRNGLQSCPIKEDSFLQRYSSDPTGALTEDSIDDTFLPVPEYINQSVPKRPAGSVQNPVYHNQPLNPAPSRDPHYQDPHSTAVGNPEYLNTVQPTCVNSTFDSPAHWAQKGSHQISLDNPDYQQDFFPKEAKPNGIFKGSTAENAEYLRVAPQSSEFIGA
ACVR1, sequence (Q04771 whole entry): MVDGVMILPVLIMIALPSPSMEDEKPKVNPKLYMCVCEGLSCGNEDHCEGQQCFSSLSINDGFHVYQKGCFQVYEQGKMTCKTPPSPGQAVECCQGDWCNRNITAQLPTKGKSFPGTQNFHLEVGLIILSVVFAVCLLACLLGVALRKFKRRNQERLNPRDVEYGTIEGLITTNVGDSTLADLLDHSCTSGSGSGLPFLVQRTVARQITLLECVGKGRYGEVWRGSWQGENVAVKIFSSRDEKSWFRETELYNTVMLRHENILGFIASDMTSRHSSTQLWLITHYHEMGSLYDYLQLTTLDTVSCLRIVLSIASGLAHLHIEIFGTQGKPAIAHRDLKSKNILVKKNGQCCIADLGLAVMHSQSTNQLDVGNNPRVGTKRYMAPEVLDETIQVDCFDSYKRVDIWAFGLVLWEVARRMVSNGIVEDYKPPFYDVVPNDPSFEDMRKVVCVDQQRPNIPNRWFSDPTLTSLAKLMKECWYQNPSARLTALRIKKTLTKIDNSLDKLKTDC
T6 sequence (Q8NI60 whole entry): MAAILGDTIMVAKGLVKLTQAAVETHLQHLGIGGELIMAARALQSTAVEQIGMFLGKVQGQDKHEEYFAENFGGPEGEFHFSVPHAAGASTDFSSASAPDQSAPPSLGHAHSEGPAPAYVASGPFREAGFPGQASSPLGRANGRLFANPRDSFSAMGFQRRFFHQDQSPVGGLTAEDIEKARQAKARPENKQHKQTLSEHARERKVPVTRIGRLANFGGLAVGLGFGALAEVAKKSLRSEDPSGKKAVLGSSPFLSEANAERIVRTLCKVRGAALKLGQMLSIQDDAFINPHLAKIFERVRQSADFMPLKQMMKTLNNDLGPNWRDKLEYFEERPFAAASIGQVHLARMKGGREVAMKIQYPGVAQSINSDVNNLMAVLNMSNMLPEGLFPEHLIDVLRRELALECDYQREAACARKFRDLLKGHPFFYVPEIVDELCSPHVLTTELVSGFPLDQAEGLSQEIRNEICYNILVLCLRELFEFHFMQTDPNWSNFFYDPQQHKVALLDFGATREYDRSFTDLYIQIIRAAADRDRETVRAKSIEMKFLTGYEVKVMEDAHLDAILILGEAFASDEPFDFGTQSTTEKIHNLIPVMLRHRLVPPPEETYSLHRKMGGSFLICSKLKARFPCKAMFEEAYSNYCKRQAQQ
PIK3CA(H1047Y), sequence (P42336 whole entry H1047Y): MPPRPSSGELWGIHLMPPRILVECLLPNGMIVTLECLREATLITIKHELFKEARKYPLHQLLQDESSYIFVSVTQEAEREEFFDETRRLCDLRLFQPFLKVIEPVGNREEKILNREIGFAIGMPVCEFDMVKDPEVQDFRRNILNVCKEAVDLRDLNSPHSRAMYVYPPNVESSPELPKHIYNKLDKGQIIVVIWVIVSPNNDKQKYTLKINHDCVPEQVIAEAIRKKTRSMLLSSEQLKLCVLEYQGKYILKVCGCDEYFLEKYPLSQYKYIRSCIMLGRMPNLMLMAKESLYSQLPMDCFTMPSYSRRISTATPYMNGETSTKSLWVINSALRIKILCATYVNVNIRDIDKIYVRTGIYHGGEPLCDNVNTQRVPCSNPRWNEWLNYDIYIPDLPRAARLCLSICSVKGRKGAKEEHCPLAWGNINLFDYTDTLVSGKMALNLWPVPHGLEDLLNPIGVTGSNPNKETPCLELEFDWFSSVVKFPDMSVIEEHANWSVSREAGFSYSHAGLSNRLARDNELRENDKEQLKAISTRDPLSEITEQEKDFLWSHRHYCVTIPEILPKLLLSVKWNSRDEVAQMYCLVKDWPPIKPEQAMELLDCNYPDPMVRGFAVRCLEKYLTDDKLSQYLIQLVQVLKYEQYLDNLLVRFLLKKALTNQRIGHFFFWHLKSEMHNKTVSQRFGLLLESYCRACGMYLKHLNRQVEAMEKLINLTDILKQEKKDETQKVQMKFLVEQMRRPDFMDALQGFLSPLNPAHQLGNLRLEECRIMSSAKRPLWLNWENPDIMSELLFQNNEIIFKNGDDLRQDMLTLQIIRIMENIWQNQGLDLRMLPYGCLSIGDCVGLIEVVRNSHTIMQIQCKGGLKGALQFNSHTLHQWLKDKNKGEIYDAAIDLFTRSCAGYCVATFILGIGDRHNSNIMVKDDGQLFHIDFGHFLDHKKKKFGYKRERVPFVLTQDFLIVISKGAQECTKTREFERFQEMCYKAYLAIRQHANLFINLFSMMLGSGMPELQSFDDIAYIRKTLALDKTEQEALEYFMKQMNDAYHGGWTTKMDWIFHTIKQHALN
RIPK1, sequence (Q13546 whole entry): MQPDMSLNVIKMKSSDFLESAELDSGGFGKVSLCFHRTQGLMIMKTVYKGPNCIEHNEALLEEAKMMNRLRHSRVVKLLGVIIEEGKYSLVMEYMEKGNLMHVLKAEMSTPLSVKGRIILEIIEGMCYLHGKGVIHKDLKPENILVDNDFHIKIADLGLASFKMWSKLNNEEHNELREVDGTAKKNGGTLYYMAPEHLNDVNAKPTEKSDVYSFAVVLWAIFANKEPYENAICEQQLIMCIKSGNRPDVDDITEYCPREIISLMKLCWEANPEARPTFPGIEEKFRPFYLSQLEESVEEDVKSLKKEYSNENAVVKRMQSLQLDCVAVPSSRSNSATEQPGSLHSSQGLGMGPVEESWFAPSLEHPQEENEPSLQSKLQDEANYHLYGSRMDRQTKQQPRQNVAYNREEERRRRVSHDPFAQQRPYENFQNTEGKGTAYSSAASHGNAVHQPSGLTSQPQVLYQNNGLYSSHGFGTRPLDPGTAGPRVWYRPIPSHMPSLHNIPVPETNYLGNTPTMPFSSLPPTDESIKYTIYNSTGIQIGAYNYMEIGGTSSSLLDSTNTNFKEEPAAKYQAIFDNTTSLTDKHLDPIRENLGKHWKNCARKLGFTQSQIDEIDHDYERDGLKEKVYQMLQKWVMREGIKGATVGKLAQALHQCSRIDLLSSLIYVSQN
PKN1, sequence (Q16512 whole entry): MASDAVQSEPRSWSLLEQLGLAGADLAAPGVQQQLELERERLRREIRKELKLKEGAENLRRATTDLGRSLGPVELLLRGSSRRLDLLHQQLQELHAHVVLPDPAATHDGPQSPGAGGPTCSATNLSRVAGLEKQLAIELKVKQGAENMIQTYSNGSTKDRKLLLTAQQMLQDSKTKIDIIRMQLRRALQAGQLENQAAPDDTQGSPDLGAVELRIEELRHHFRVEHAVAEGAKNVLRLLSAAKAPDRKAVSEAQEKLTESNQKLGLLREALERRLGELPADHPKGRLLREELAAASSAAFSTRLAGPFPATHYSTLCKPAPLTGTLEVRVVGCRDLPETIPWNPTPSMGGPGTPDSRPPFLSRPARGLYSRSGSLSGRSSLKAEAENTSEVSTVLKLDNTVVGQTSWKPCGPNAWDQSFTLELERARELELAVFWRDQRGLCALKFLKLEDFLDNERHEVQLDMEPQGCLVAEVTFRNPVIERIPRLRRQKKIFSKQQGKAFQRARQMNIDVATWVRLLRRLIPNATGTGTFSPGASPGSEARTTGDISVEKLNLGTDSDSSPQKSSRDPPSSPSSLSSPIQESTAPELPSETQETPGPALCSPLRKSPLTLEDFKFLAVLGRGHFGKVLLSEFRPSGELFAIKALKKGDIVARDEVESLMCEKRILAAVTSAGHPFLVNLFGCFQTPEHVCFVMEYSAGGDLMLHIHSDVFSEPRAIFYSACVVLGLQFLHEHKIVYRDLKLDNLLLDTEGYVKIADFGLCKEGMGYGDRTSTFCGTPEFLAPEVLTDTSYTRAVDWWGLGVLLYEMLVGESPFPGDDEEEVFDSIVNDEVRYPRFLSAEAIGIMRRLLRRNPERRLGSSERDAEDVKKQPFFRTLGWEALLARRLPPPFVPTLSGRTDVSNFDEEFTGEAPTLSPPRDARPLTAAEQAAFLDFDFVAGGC

As for `C[C@@H]1CC(=O)NN=C1c1ccc(NN=C(C#N)C#N)cc1` [levosimendan], the values for the remaining binding at 10 µM in experiment [1] (setting [16]), in experiment [4] (setting [16]) and in experiment [9] (setting [16]) were 78%, 15% and 55%, respectively. The remaining binding at 100 µM in [1] (setting [17]) turned out to be 28%; in experiment [2], 89%; in [3], 100%; in experiment [4] (setting [17]), 0%; in [5], 95%; in experiment [6] it was 95%. Moreover, the remaining binding at 100 µM in experiment [7] worked out at 76%; in [8], 73%; in experiment [9] (setting [17]), 6.5%; in experiment [10], 82%; in experiment [11], 100%; in experiment [12], 100%. The remaining binding at 100 µM in experiment [13] was 85%; in experiment [14], 57%; in [15], 61%.
